Reference: patent publication US5108916A, “Process for stereoselectively hydrolyzing, transesterifying or esterifying with immobilized isozyme of lipase from Candida rugosa” (priority 1989, dated 1992)
Values joined by “and” are separate entries in the source; they are usually repeats but may differ in a detail not shown here. Identical values can stand only once. Like-named read-outs stand apart in the source and are kept apart here.

System: CSC-2
Assay: Effect of additives and solvents on hydrolysis of ketoprofen monoglyceride by CSC-2
Type: biochemical, Candida rugosa
Details: for % ee S-acid: 23 hr, 200 ul; for Isolated % ee (S-Acid): extraction procedure I for oleic acid and corn oil, II for the others; for % ee: as E102
Method: Hydrolysis of ketoprofen-monoglyceride (50mg) was carried out in various DMF-100mM (NH4)H2 PO4 buffer (pH 5.5) mixtures. In each flask a solution of ketoprofen monoglyceride (50mg) in DMF (200ul) was added. DMF was added followed by 100mM (NH4)H2 PO4 buffer. […] After 22 hours, 2%, 5%, and 10% DMF samples were acidified, extracted with CHCl3 (2×10ml) and analyzed. The other samples were analyzed directly as in Example 18. The acid produced decreases with increasing amount of DMF.
Small amounts of DMF were added to the reaction mixture to increase the solubility of KPG. In all cases 100mM ammonium phosphate buffer (pH 5.5) was used and 2% (v/v) detergents were added and the total volume was 10ml.
The buffer reaction (entry #2 in the table) contained enzyme in buffer (2 ml) and the buffer only (entry #1 in the table) reaction contained no enzyme.
The presence of a surfactant like Tween increases the solubility o lipophilic compounds in water. […] Tween 80 was added to make 1% and 2% solution (v/v). Bovine serum albumin (BSA) (10mg) was added to each of two flasks. A solution of 50mg of ketoprofen monoglyceride in 200ul DMF was added to each. After 20 hours at 250 rpm and 35° C. the reaction mixtures were acidified, extracted and analyzed by the usual HPLC procedure as in Example 18.
Various surfactants were used at 2% of the reaction volume to determine their effect on the enzymatic reaction involving the conversion of ketoprofen monoglyceride (KPG) to ketoprofen (KP). […] Flasks were covered with parafilm and incubated in a 35° C. water bath at 250 rpm, typically overnight. Reactions were stopped by acidification, extracted with CHCl3 (2×10 ml). The %acid and %ee were determined by the method of Example 18. It is to be noted that Hydrophile-Lipophile Balance (HLB) values have no apparent bearing on the ability of the surfactant to enhance the conversion of KPG to KP.
75 mg of KPG (in the absence of DMF) was individually weighed into 50 ml Erlenmeyer flasks. […] 9 ml of 100 mM (NH4)H2 PO4, pH 5.5 buffer was added, and the flasks were placed into a 35° C., 250 rpm water bath incubator for 20 hours. The reactions were acidified, extracted with CHCl3 and examined by HPLC as in Example 18. The %ee was determined as per Example 18.
Various amounts of oleic acid or its esters were added, and the reactions stopped at the times indicated, acidified, extracted with CHCl3 and analyzed as in Example 18.
An experiment was performed as in Example 41, but using 100, 200 and 500 ul of olive oil to determine if it would enhance the rate of conversion of KPG to KP. […] After 20 hours, all reactions were acidified, extracted with CHCl3 and analyzed by HPLC as in Example 18. The results are given below:
50 mg of KPG was weighed into Erlenmeyer flasks. […] Flasks were incubated at 35° C., 250 rpm for 23 hours. The reactions were stopped by acidification, extracted with CHCl3, and analyzed by HPLC as in Example 18. The additive is listed along with its percentage composition of glycerides of oleic acid.
To determine the problems associated with having oleic acid or oleate. esters in the reaction media, the following experiment was performed. […] Flasks were placed in a 35° C. incubator at 250 rpm, and the reactions were sampled by taking 200 ul aliquots at various time points. These aliquots were analyzed by HPLC (ODS-3 RAC column, CH3 OH: 10 mM (NH4)H2 PO4 (60:40) eluant, 4 ml/min, 254 nm detection) to determine the course of reaction. When approximately 40% acid was produced, the reactions were stopped by placing the flasks in the -70° C. freezer. Two extraction procedures were utilized to determine the best method of isolating S-Ketoprofen free of oleic acid. The first (listed as Extraction Procedure I in the following table) involved first making the solution basic (pH 10) with NaOH, then extracting with hexane, then CHCl3.

[1] = solvent/buffer 1:1 two phase, 16 hour reactions
[2] = surfactant 2% of reaction volume, 200 ul DMF, enzyme alone = 100
[3] = solvent/buffer 1:1 two phase, 26 hours, buffer = 100
[4] = 200 ul DMF, b1067-b1069 18 hr, b1070-b1084 23 hr, amounts: 200 ul except tributyrin, dilinolein, trilinoein 100 ul, monostearin, distearin 25 ul, tristearin 28 ul, 0 = CSC-2 alone
[5] = 5 g KPG, 50 mg CSC-2, 5 grams additive
[6] = 18 hr with 100 ul (b930-b936), 23 hr with 200 ul (b937-b944), None = CSC-2 alone
[7] = additive 100 ul, 75 mg KPG, no DMF, 20 hours
[8] = additive 200 ul, 75 mg KPG, 20 hours
[9] = additive 500 ul, 75 mg KPG, 20 hours

CCCCCCO [n-Hexanol]
Relative Rate [1]: 0

Tween 61
Relative Rate [2]: 92

POE-20 stearyl ether [Brij 78]
Relative Rate [2]: 14

CC(C)OC(C)C [Isopropyl ether]
EE of S-acid (solvent/buffer 1:1 two phase, 26 hours): 69% | Relative Rate [3]: 53

CCCCCCCCCCCCCCCCCC(=O)OCC(COC(=O)CCCCCCCCCCCCCCCCC)OC(=O)CCCCCCCCCCCCCCCCC [tristearin]
% Acid [4]: 25%

CCCCCCCCCCCCCCCCCC(=O)OCC(O)CO (stereo not drawn) [monostearin]
% Acid [4]: 31%

Tween 20
Relative Rate [2]: 39

POE-23 lauryl ether [Brij 35]
Relative Rate [2]: 26

Span 60
Relative Rate [2]: 108

Tween 65
Relative Rate [2]: 39

CCCCCCCC/C=C\CCCCCCCC(=O)O [oleic acid]
Final % Acid [5]: 39% | Rate [5]: 1.2 µmol/h/mg | % Acid [6]: 47% | % ee S-acid (None = CSC-2 alone): 96% | Rate (as E158): 3 | Isolated % ee (S-Acid): 88%

Span 40
Relative Rate [2]: 99

sorbitan sesquioleate [Arlacel 83]
% Acid [7]: 30% | S-acid (% ee) (additive 200 ul): 99 | % Acid [8]: 30% | % Acid [9]: 29% | Relative Rate [2]: 172

CCCCC/C=C\C/C=C\CCCCCCCC(=O)OCC(O)COC(=O)CCCCCCC/C=C\C/C=C\CCCCC [dilinolein]
% Acid [4]: 20%

POE-2 oleyl ether [Brij 92]
Relative Rate [2]: 27

Span 85
Final % Acid [5]: 28.9% | Rate [5]: 0.87 µmol/h/mg | % Acid [7]: 28% | S-acid (% ee) (additive 200 ul): 96 | % Acid [8]: 33% | % Acid [9]: 34% | % ee: 93% and 96% and 95% and 97% | Isolated % ee (S-Acid): 95.1% | Relative Rate [2]: 181

Tween 80
Final % Acid [5]: 34.9% | Rate [5]: 0.46 µmol/h/mg | Relative Rate (20 hours, b844=no Tween no BSA, b846=1% Tween and BSA, b848=2% Tween and BSA, b850=2% Tween no BSA, 1200 min): 114 and 142 and 118 | % Acid [7]: 12% | S-acid (% ee) (additive 200 ul): 96 | % Acid [8]: 22% | % Acid [9]: 18% | % ee: 96% and 92% and 86% and 97% and 93% | ee of S-acid (as E149): 95% and 96% | Isolated % ee (S-Acid): 94.3% | Relative Rate [2]: 136

ClCCCl [Ethylene dichloride]
Relative Rate [1]: 0

POE-2 stearyl ether [Brij 72]
Relative Rate [2]: 106

CCC(=O)CC [3-Pentanone]
Relative Rate [1]: 0

Tween 60
Relative Rate [2]: 23

CCCCC/C=C\C/C=C\CCCCCCCC(=O)OCC [Linoleic acid ethyl ester]
% Acid [4]: 26%

CCCCC/C=C\C/C=C\CCCCCCCC(=O)OCC(COC(=O)CCCCCCC/C=C\C/C=C\CCCCC)OC(=O)CCCCCCC/C=C\C/C=C\CCCCC [trilinoein]
% Acid [4]: 20%

ClCCl [Dichloromethane]
Relative Rate [1]: 0

CCCCO [n-Butanol]
Relative Rate [1]: 0

CCCCCCCC/C=C\CCCCCCCC(=O)OCC [oleic acid ethyl ester]
% Acid [6]: 52% | % ee S-acid (None = CSC-2 alone): 96% | Rate (as E158): 4

CCCC(=O)OCC(COC(=O)CCC)OC(=O)CCC [tributyrin]
% Acid [4]: 3%

CCCCCCCCO [n-Octanol]
Relative Rate [1]: 0

CCOCC [Ethyl ether]
Relative Rate (pH 5.5, 960 min): 0

POE-10 oleyl ether [Brij 96]
Relative Rate [2]: 27

Diolein
% Acid [6]: 42% | Rate (as E158): 4

Tween 40
Relative Rate [2]: 29

O=C1CCCCC1 [Cyclohexanone]
Relative Rate [1]: 0

CC/C=C\C/C=C\C/C=C\CCCCCCCC(=O)O [linolenic acid]
% Acid [4]: 13%

CCOC(C)=O [Ethyl acetate]
Relative Rate [1]: 0

CCCCC/C=C\C/C=C\CCCCCCCC(=O)O [linoleic acid]
% Acid [4]: 21%

Span 80
% Acid [7]: 27% | S-acid (% ee) (additive 200 ul): 97 | % Acid [8]: 28% | % Acid [9]: 27% | Relative Rate [2]: 160

CCCCCCCC/C=C\CCCCCCCC(=O)OCC(COC(=O)CCCCCCC/C=C\CCCCCCCC)OC(=O)CCCCCCC/C=C\CCCCCCCC [triolein]
% Acid [6]: 38% | Rate (as E158): 3

Span 20
Relative Rate [2]: 75

CCCCC/C=C\C/C=C\CCCCCCCC(=O)OC [linoleic acid methyl ester]
% Acid [4]: 34%

CCCCCCCC/C=C\CCCCCCCC(=O)OCC(O)CO (stereo not drawn) [Monolein]
% Acid [6]: 43% | Rate (as E158): 4

CCCCCCCC/C=C\CCCCCCCC(=O)OC [oleic acid methyl ester]
% Acid [6]: 51% | % ee S-acid (None = CSC-2 alone): 97% | Rate (as E158): 3

ClC(Cl)Cl [Chloroform]
Relative Rate (pH 5.5, 960 min): 0

OCc1ccccc1 [Benzyl alcohol]
Relative Rate [1]: 0

CCc1ccccc1 [Ethylbenzene]
EE of S-acid: 48% | Relative Rate [3]: 18

POE-10 stearyl ether [Brij 76]
Relative Rate [2]: 18

Tween 85
Relative Rate [2]: 27

POE-20 oleyl ether [Brij 99]
Relative Rate [2]: 15

CCCCCCCCCCCCCCCCCC(=O)OCC(O)COC(=O)CCCCCCCCCCCCCCCCC [distearin]
% Acid [4]: 30%

CC(=O)OCC(COC(C)=O)OC(C)=O [Triacetin]
% Acid [4]: 12%
